Assay results reported in patent US20210330611A1, “THERAPY FOR NEUROLOGICAL DISEASES/DISORDERS” (priority 2020, published 2021).
Counter-ions that a name gives are not always drawn. Like-named read-outs stand apart in the source and are kept apart here.

Tests used:
[1] = test system: fibrin-induced microglia activation; test: Image-based assay of fibrin-induced microglia activation (HTS and dose response); format: cell-based, rat; conditions: for inhibition at 10 µM: Rattus norvegicus, Microglia, read-out: Fibrin % inhibition
[2] = test system: LPS-induced microglia activation; test: Image-based assay of LPS-induced microglia activation (HTS and dose response); format: cell-based, rat; conditions: for inhibition at 10 µM: Rattus norvegicus, Microglia, read-out: LPS % inhibition
[3] = test system: fibrin- and LPS-induced microglia activation; test: cells; format: cell-based, rat
primary rat microglia [4] = test system: primary rat microglia;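 on Fibrin % cell toxicity: share of dead cells sized under 150 µm2 at 10 µM in fibrin-stimulated microglia HTS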
primary rat microglia [5] = test system: primary rat microglia; remark: listed apart in the source;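 on Fibrin % cell toxicity: share of dead cells sized under 150 µm2 at 10 µM in fibrin-stimulated microglia HTS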
[6] = primary microglia HTS, fibrin stimulation, increased cell size (>800 μm^2) as marker of activation
[7] = 48 h, primary microglia HTS, LPS stimulation, increased cell size (>800 μm^2) as marker of activation
[8] = quadrant by fibrin and LPS inhibition in HTS of 1907 compounds
[9] = primary microglia HTS, fibrin stimulation, compounds at 10 μM
[10] = primary microglia HTS, LPS stimulation, compounds at 10 μM
[11] = quadrant by fibrin and LPS inhibition, HTS at 10 μM
[12] = primary HTS, 10 μM, fibrin-stimulated primary microglia
[13] = primary HTS, 10 μM, LPS-stimulated primary microglia
[14] = primary microglia HTS, 10 μM, fibrin-stimulated, cell size >800 μm^2 as marker of activation
[15] = primary microglia HTS, 10 μM, LPS-stimulated, cell size >800 μm^2 as marker of activation
[16] = HTS of 1907 compounds, quadrant by fibrin and LPS inhibition

COC(=O)C1=C(C)NC(C)=C(C(=O)OCC(C)C)C1c1ccccc1[N+](=O)[O-] (centres unmarked) [Nisoldipine]
inhibition at 10 µM [1, 6]: 6%
inhibition at 10 µM [2, 7]: 25%
Quadrant (FIG. 5b) [3, 8]: Q4
Fibrin % cell toxicity (primary rat microglia [4]; rat): 1%
LPS % cell toxicity (primary rat microglia [5]; rat): 1%

CC(=O)OCC[N+](C)(C)C [Acetylcholine]
inhibition at 10 µM [1, 9]: -39%
inhibition at 10 µM [2, 10]: 9%
Quadrant (FIG. 5b) [3, 11]: Q4
Fibrin % cell toxicity (primary rat microglia [4]; rat): 0%
LPS % cell toxicity (primary rat microglia [5]; rat): 0%

COc1cc2nc(N3CCN(C(=O)C4CCCO4)CC3)nc(N)c2cc1OC (centres unmarked) [Terazosin]
inhibition at 10 µM [1]: -1%
inhibition at 10 µM [2]: 9%
Quadrant (FIG. 5b) [3]: Q4
Fibrin % cell toxicity (primary rat microglia [4]; rat): 1%
LPS % cell toxicity (primary rat microglia [5]; rat): 0%

CN(C)C(=O)C(CCN1CCC(O)(c2ccc(Cl)cc2)CC1)(c1ccccc1)c1ccccc1 [Loperamide]
inhibition at 10 µM [1]: 12%
inhibition at 10 µM ([2]; 48 h): 63%
Quadrant (FIG. 5b) [3]: Q1
Fibrin % cell toxicity (primary rat microglia [4]; rat): 1%
LPS % cell toxicity (primary rat microglia [5]; rat): 2%

C[N+](C)(C)CCO [Choline]
inhibition at 10 µM [1]: 0%
inhibition at 10 µM [2]: 12%
Quadrant (FIG. 5b) [3]: Q4
Fibrin % cell toxicity (primary rat microglia [4]; rat): 0%
LPS % cell toxicity (primary rat microglia [5]; rat): 0%

CC1(C)C[C@@H]1C(=O)N/C(=C\CCCCSC[C@H](N)C(=O)O)C(=O)O [Cilastatin]
inhibition at 10 µM [1]: -6%
inhibition at 10 µM [2]: 2%
Quadrant (FIG. 5b) [3]: Q4
Fibrin % cell toxicity (primary rat microglia [4]; rat): 1%
LPS % cell toxicity (primary rat microglia [5]; rat): 0%

C[N+](C)(C)CC(=O)O [Trimethyl Glycine]
Fibrin % inhibition ([1]; 10 µM): −14%
LPS % inhibition ([2]; 10 µM): 22%
Quadrant (FIG. 5b) [3]: Q4
Fibrin % cell toxicity (primary rat microglia [4]): 0%
LPS % cell toxicity (primary rat microglia [5]): 0%

CC(=O)OC1CC2CCC1(C)C2(C)C (centres unmarked) [Bornyl Acetate]
inhibition at 10 µM [1, 12]: -38%
inhibition at 10 µM [2, 13]: 2%
Quadrant (FIG. 5b) ([3]; primary HTS, 10 μM): Q4
Fibrin % cell toxicity (primary rat microglia [4]; rat): 0%
LPS % cell toxicity (primary rat microglia [5]; rat): 0%

COc1ccc2cc3[n+](cc2c1OC)CCc1cc2c(cc1-3)OCO2 [Berberine]
inhibition at 10 µM [1, 12]: -62%
inhibition at 10 µM [2, 13]: 4%
Quadrant (FIG. 5b) ([3]; primary HTS, 10 μM): Q4
Fibrin % cell toxicity (primary rat microglia [4]; rat): 0%
LPS % cell toxicity (primary rat microglia [5]; rat): 0%

OC(Cn1cncn1)(Cn1cncn1)c1ccc(F)cc1F [Fluconazole]
inhibition at 10 µM [1]: 3%
inhibition at 10 µM ([2]; 48 h): 19%
Quadrant (FIG. 5b) [3]: Q4
Fibrin % cell toxicity (primary rat microglia [4]; rat): 0%
LPS % cell toxicity (primary rat microglia [5]; rat): 0%

CC[C@@H](c1cccc(O)c1)[C@@H](C)CN(C)C [Tapentadol Hydrochloride]
inhibition at 10 µM [1, 14]: -12%
inhibition at 10 µM [2, 15]: 12%
Quadrant (FIG. 5b) [3, 16]: Q4
Fibrin % cell toxicity (primary rat microglia [4]; rat): 1%
LPS % cell toxicity (primary rat microglia [5]; rat): 0%

O=C(OCc1ccccc1)c1ccccc1 [Benzyl Benzoate]
inhibition at 10 µM [1, 12]: 35%
inhibition at 10 µM [2, 13]: 32%
Quadrant (FIG. 5b) ([3]; primary HTS, 10 μM): Q4
Fibrin % cell toxicity (primary rat microglia [4]; rat): 1%
LPS % cell toxicity (primary rat microglia [5]; rat): 1%

Nc1ncn([C@@H]2O[C@H](CO)[C@@H](O)[C@H]2O)c(=O)n1 [5-azacytidine, Azacitidine]
Fibrin % inhibition [1, 9]: 9%
LPS % inhibition [2, 10]: −7%
Quadrant (FIG. 5b) [3, 11]: Q4
Fibrin % cell toxicity (primary rat microglia [4]): 1%
LPS % cell toxicity (primary rat microglia [5]): 0%

CC[C@]1(O)C[C@H]2CN(CCc3c([nH]c4ccccc34)[C@@](C(=O)OC)(c3cc4c(cc3OC)N(C=O)[C@H]3[C@@](O)(C(=O)OC)[C@H](OC(C)=O)[C@]5(CC)C=CCN6CC[C@]43[C@@H]65)C2)C1 [Vincristine]
inhibition at 10 µM [1, 9]: 105%
inhibition at 10 µM [2, 10]: 104%
Quadrant (FIG. 5b) [3, 11]: Q2
Fibrin % cell toxicity (primary rat microglia [4]; rat): 33%
LPS % cell toxicity (primary rat microglia [5]; rat): 10%

O=CCc1ccc(-c2ccccc2)cc1
Fibrin % inhibition ([1]; 10 µM): −26%
LPS % inhibition ([2]; 10 µM): 7%
Quadrant (FIG. 5b) [3]: Q4
Fibrin % cell toxicity (primary rat microglia [4]): 0%
LPS % cell toxicity (primary rat microglia [5]): 0%

C=CCc1ccccc1OCC(O)CNC(C)C (centres unmarked) [Alprenolol Hydrochloride, Alprenolol]
Fibrin % inhibition [1, 9]: 1%
LPS % inhibition [2, 10]: 13%
Quadrant (FIG. 5b) [3, 11]: Q4
Fibrin % cell toxicity (primary rat microglia [4]): 0%
LPS % cell toxicity (primary rat microglia [5]): 1%

N[C@@H](CCC(=O)N[C@@H](CS)C(=O)NCC(=O)O)C(=O)O [Glutathione]
inhibition at 10 µM [1]: -5%
inhibition at 10 µM ([2]; 48 h): 13%
Quadrant (FIG. 5b) [3]: Q4
Fibrin % cell toxicity (primary rat microglia [4]; rat): 1%
LPS % cell toxicity (primary rat microglia [5]; rat): 0%

CC(C)(O)c1ccccc1CC[C@@H](SCC1(CC(=O)O)CC1)c1cccc(/C=C/c2ccc3ccc(Cl)cc3n2)c1 [Montelukast Sodium]
Fibrin % inhibition [1]: 21%
LPS % inhibition [2]: 16%
Quadrant (FIG. 5b) [3]: Q4
Fibrin % cell toxicity (primary rat microglia [4]; rat): 1%
LPS % cell toxicity (primary rat microglia [5]; rat): 0%

CNC[C@H](O)c1cccc(O)c1 [Phenylephrine]
inhibition at 10 µM [1]: 38%
inhibition at 10 µM ([2]; 48 h): 31%
Quadrant (FIG. 5b) [3]: Q4
Fibrin % cell toxicity (primary rat microglia [4]; rat): 1%
LPS % cell toxicity (primary rat microglia [5]; rat): 0%

Oc1cccc2cccnc12 [Oxyquinoline]
inhibition at 10 µM [1]: 117%
inhibition at 10 µM [2]: 116%
Quadrant (FIG. 5b) [3]: Q2
Fibrin % cell toxicity (primary rat microglia [4]; rat): 80%
LPS % cell toxicity (primary rat microglia [5]; rat): 57%

C[C@]12C=CC(=O)N[C@@H]1CC[C@@H]1[C@@H]2CC[C@]2(C)[C@@H](C(=O)Nc3cc(C(F)(F)F)ccc3C(F)(F)F)CC[C@@H]12 [Dutasteride]
inhibition at 10 µM [1]: 7%
inhibition at 10 µM [2]: 22%
Quadrant (FIG. 5b) [3]: Q4
Fibrin % cell toxicity (primary rat microglia [4]; rat): 1%
LPS % cell toxicity (primary rat microglia [5]; rat): 0%

CO[C@]12C[C@@H](COC(=O)c3cncc(Br)c3)CN(C)[C@@H]1Cc1cn(C)c3cccc2c13 [Nicergoline]
inhibition at 10 µM [1, 6]: 6%
inhibition at 10 µM [2, 7]: 7%
Quadrant (FIG. 5b) [3, 8]: Q4
Fibrin % cell toxicity (primary rat microglia [4]; rat): 1%
LPS % cell toxicity (primary rat microglia [5]; rat): 0%

COc1cc(NS(C)(=O)=O)ccc1Nc1c2ccccc2nc2ccccc12 [Amsacrine]
inhibition at 10 µM [1, 6]: 70%
inhibition at 10 µM [2, 7]: 120%
Quadrant (FIG. 5b) [3, 8]: Q2
Fibrin % cell toxicity (primary rat microglia [4]; rat): 3%
LPS % cell toxicity (primary rat microglia [5]; rat): 54%

CN1C(C(=O)Nc2ccccn2)=C(O)c2sccc2S1(=O)=O [Tenoxicam]
inhibition at 10 µM [1]: 11%
inhibition at 10 µM [2]: 15%
Quadrant (FIG. 5b) [3]: Q4
Fibrin % cell toxicity (primary rat microglia [4]; rat): 1%
LPS % cell toxicity (primary rat microglia [5]; rat): 0%

COc1ccc(CN(CCN(C)C)c2ccccn2)cc1 [Mepyramine]
inhibition at 10 µM [1, 6]: -11%
inhibition at 10 µM [2, 7]: 13%
Quadrant (FIG. 5b) [3, 8]: Q4
Fibrin % cell toxicity (primary rat microglia [4]; rat): 0%
LPS % cell toxicity (primary rat microglia [5]; rat): 0%

Cc1nc2n(c(=O)c1CCN1CCC(c3noc4cc(F)ccc34)CC1)CCCC2O (centres unmarked) [Paliperidone]
inhibition at 10 µM [1, 6]: -26%
inhibition at 10 µM [2, 7]: 9%
Quadrant (FIG. 5b) [3, 8]: Q4
Fibrin % cell toxicity (primary rat microglia [4]; rat): 1%
LPS % cell toxicity (primary rat microglia [5]; rat): 0%

Cc1c(-c2cnccn2)ssc1=S [Oltipraz]
inhibition at 10 µM [1]: -2%
inhibition at 10 µM ([2]; 48 h): -1%
Quadrant (FIG. 5b) [3]: Q4
Fibrin % cell toxicity (primary rat microglia [4]; rat): 1%
LPS % cell toxicity (primary rat microglia [5]; rat): 0%

[H]/N=C(/N)N[C@H]1[C@H](O)[C@@H](O)[C@H](O[C@@H]2O[C@@H](C)[C@](O)(C=O)[C@H]2O[C@@H]2O[C@@H](CO)[C@H](O)[C@@H](O)[C@@H]2NC)[C@@H](N/C(N)=N\[H])[C@@H]1O [Streptomycin Sulfate]
inhibition at 10 µM [1, 14]: -46%
inhibition at 10 µM [2, 15]: 13%
Quadrant (FIG. 5b) [3, 16]: Q4
Fibrin % cell toxicity (primary rat microglia [4]; rat): 0%
LPS % cell toxicity (primary rat microglia [5]; rat): 0%

C#CCN(C)CCCOc1ccc(Cl)cc1Cl.Cl
Fibrin % inhibition ([1]; 10 µM): −28%
LPS % inhibition ([2]; 10 µM): 6%
Quadrant (FIG. 5b) [3]: Q4
Fibrin % cell toxicity (primary rat microglia [4]): 0%
LPS % cell toxicity (primary rat microglia [5]): 0%

Acriflavinium Hydrochloride
Fibrin % inhibition [1, 6]: 110%
LPS % inhibition ([2]; primary microglia HTS, LPS stimulation, increased cell size (>800 μm^2) as marker of activation): 129%
Quadrant (FIG. 5b) [3, 8]: Q2
Fibrin % cell toxicity (primary rat microglia [4]): 57%
LPS % cell toxicity (primary rat microglia [5]): 63%

CC(=O)C1C(=O)C=C(C)OC1=O (centres unmarked) [Dehydroacetic Acid]
inhibition at 10 µM [1, 9]: -36%
inhibition at 10 µM [2, 10]: 2%
Quadrant (FIG. 5b) ([3]; classification by fibrin and LPS inhibition, HTS at 10 μM): Q4
Fibrin % cell toxicity (primary rat microglia [4]; rat): 0%
LPS % cell toxicity (primary rat microglia [5]; rat): 0%

O=C(O)c1cc(/N=N/c2ccc(S(=O)(=O)Nc3ccccn3)cc2)ccc1O [Sulfasalazine]
inhibition at 10 µM [1, 14]: -29%
inhibition at 10 µM [2, 15]: 13%
Quadrant (FIG. 5b) [3, 16]: Q4
Fibrin % cell toxicity (primary rat microglia [4]; rat): 0%
LPS % cell toxicity (primary rat microglia [5]; rat): 0%

O=C1C[C@@H]2OCC=C3CN4CC[C@]56c7ccccc7N1[C@H]5[C@H]2[C@H]3C[C@H]46 [Strychnine]
inhibition at 10 µM [1]: 1%
inhibition at 10 µM [2]: 18%
Quadrant (FIG. 5b) [3]: Q4
Fibrin % cell toxicity (primary rat microglia [4]; rat): 1%
LPS % cell toxicity (primary rat microglia [5]; rat): 0%

Cc1ccc(C(C)C)c(O)c1 [Thymol]
inhibition at 10 µM [1, 14]: 15%
inhibition at 10 µM [2, 15]: 20%
Quadrant (FIG. 5b) [3, 16]: Q4
Fibrin % cell toxicity (primary rat microglia [4]; rat): 1%
LPS % cell toxicity (primary rat microglia [5]; rat): 0%
